1 compound from paper PMC4545913, “Dual EZH2 and EHMT2 histone methyltransferase inhibition increases biological efficacy in breast cancer cells” (Clinical Epigenetics, 2015) can be followed below.

In the experiment the test system is MDA-MB-231 cells. Description: MTT cell viability assay. The experiment is classed as cell-based. As to conditions: Homo sapiens. As for the experimental part: Fig. 1 MTT and mRNA levels in MDA-MB-231 cells after pharmacological inhibition and siRNA knockdown of EZH2 and EHMT2(G9a), individually and in combination. a Expression levels of KRT17, FBX032, JMJD3, EZH2, SPINK1 and EHMT2 were measured by qRT-PCR in the MDA-MB-231 cell line 48 h after transfection with siRNAs targeting EZH2 and EHMT2, both individually and in combination. All measurements were normalised to the fold-change (relative to GAPDH) in the mock transfection control. Error bars represent the mean ± SD of experiment performed in technical triplicate. b Expression levels of KRT17, FBX032, JMJD3 and SPINK1 were measured by qRT-PCR in the MDA-MB-231 cell line treated for 48 h with GSK343, UNC0638, and UNC0638 (at 7.5 μM) with increasing doses of GSK343. Each group has been compared to the untreated sample following normalisation to GAPDH. Error bars represent the mean ± SD of experiment performed in technical triplicate. c MTT assay for cell viability of MDA-MB-231 cells after treatment. MDA-MB-231 cells were seeded in 96 well plates. After 24 h, increasing doses of GSK343, UNC0638 or combination treatments (1, 2.5, 5, 7.5, 10 and 15 μM) were added to cells. Control was media with 0.5 % DMSO. Cell viability was measured by MTT assay after a 48-h treatment and a 24-h proliferation period. Error bars represent the mean ± SEM of five independent repeats
For clonogenic assays, cells were treated with compound for 48 h, media were removed and replaced with fresh media for a further 12 days to measure colony formation. For cell viability assays, lymphoma cells were plated at 20,000 cells in 200 μl per well in U-bottom 96 well plates in RPMI medium +20 % FCS. Cells were re-suspended 48 h later, diluted 10-fold in PBS + propidium iodide (PI) and the concentration of PI negative cells was counted using an Attune flow cytometer with autosampler. Breast cancer cells were seeded at a density of 10,000 cells/well in a sterile 96 clear-well plate with 150 μl of DMEM (+10 % FCS and 2 mM L-Glutamine). Each compound treatment was performed in triplicate for 72 h at concentrations of 100 nM and 1, 5, 10 and 50 μM in 100 μl of full-medium. After 72 h, 20 μl of MTT solution (3 mg of MTT Formazan, Sigma/1 ml PBS) was added to the medium and incubated for 4 h at 37 °C in a CO2 incubator. The MTT-product was solubilised with 100 μl DMSO, and for 1 h, incubated in the dark at room temperature. The optical density was read at 570 nm with PHERAstar.
In general terms: Tetrazolium assays rely on reduction of a dye to a coloured formazan, in cell work by metabolically active cells.

Molecules are shown by their SMILES. Read-outs that look alike come from different tables or passages of the source.

As a reminder, the IC50 is the concentration at which inhibition is half-maximal.

As for `COc1cc2nc(N3CCN(C)CC3)nc(NC3CCN(Cc4ccccc4)CC3)c2cc1OC` [HKMTI-1-005], the IC50 runs as follows: (MDA-MB-231, MTT (Table 3B), read-out: Cell growth IC50 MDA-MB-231) 4.3 µM; (MDA-MB-231 (Table 2), read-out: Cell viability (MTT) IC50) 4.3 µM.
